The results in this text go back to patent publication US20220168427A1 (Ranok Therapeutics (Hangzhou) Co. Ltd., priority 2019, published 2022).

pIC50: −log10 of the molar value.

One series concerns the target T1, BRD4 (BD1+BD2) (Homo sapiens, UniProt O60885).
T1 construct: 1.8 μg/ml recombinant BRD4 (BD1+BD2 domains) protein
To be noted: read-out: BRD4 Binding Potency.

The next series has as its system ERBB2. Nature of the series: HSP90 Client Protein Degradation Flow Cytometry Assay, ERBB2 in BT-474 cells. It counts as cell-based, human. The protocol: (§1) MV4-11 cells were plated in a 24-well tissue culture plate at a density of 350,000 cells/450 μL/well and incubated in 37° C./5% CO2 for 1 hr. Cells were then treated with compounds at various concentrations and incubated in 37° C./5% CO2 for 24 hr. Cells were harvested, washed once, counted and 200 μL of 1% paraformaldehyde/PBS was added and incubated for 15 min at room temperature. 200 μL of 1×PBS/0.4% Triton X-100 was added and incubated for 15 min at 4° C. Cells were washed three times and resuspended in 50 μL of 1×PBS/0.2% Triton X-100. 2 μL/10^6 cells of anti-BRD4 antibody (ABCAM, #128874) was added and mixed by pipetting up and down. Cells were incubated for 30 min at room temperature in the dark, washed three times and resuspended in 50 μL of 1×PBS/0.2% Triton X-100. Goat anti-rabbit IgG H&L antibody (1:2000 dilution) was added and mixed by pipetting up and down and incubated for 30 min at room temperature in the dark. Finally, cells were washed three times and resuspended in 200 μL of PBS for flow cytometric analysis.
(§2) Similar flow cytometry experiments for ERBB2 in BT-474 human breast carcinoma cells (ATCC, #HTB-20) and IGF1R, EGFR and RAF1 in HEK-293 human embryonic kidney (ATCC, #CRL-1573) were performed using anti-ERBB2 (R&D, #FAB1129P), anti-IGF1R (Cell Signaling Technology, #9750), anti-EGFR (Cell Signaling Technology, #139690) and anti-RAF1 (ABCAM, #ab181115) antibodies.
In general terms: In flow cytometry, cells or beads pass a laser one at a time.

For a further series, the system named is EGFR. The experiment in a line: HSP90 Client Protein Degradation Flow Cytometry Assay, EGFR in HEK-293 cells. In kind it is cell-based, human. The protocol:
as §1, §2

The next series concerns RAF1. Nature of the series: HSP90 Client Protein Degradation Flow Cytometry Assay, RAF1 in HEK-293 cells. In kind it is cell-based, human. The protocol: as §1, §2
The test system of another series is MV4-11 cells. Nature of the series: MV4-11 Cell Cytotoxicity Assay. It counts as cell-based, human. To be noted: 72 hr, CCK-8. From the text: % Inhibition=100−(D−B)/(S−B)*100%.
S: The absorbance of the maximum (cells with DMSO)
B: The absorbance of the minimum (medium with DMSO)

The subject of the next series is MV4-11 xenograft. The experiment in a line: MV4-11 AML tumor xenograft study in mice. To be noted: for animals tumor free at the end of the study: 3 weeks; for tumor growth inhibition: after 3 weeks of dosing. How it is done: (§3) Tumor Xenograft Studies in Mice
MV4-11 acute myeloid leukemia and SU-DHL-4 diffuse large B-cell lymphoma (ATCC, #CRL-2957) cells were cultured in medium supplemented with 10% fetal bovine serum at 37° C./5% CO2. 5×10^6 MV-4-11 or 1×10^7 SU-DHL-4 cells were collected and re-suspended in 0.1 mL of serum-free media with Matrigel (1:1 v/v) per mouse for subcutaneous inoculation in isoflurane anesthetized male BALB/c nude or C.B-17 scid mice, respectively (treated in accordance with AAALAC animal welfare guidelines). When the average tumor volumes reached 100-200 mm^3, tumor volume outliers were removed and the remaining animals randomly divided into groups of 6-8 with similar average tumor volumes in each group. […] […] The appearance and behavior of each mouse was observed and recorded daily. Body weights and tumor volumes were measured and recorded every 2-4 days and the results were expressed as group means±SEM. Pairwise statistical comparisons between groups were performed by one-way ANOVA, and p<0.05 was considered statistically significant.

The next series deals with SU-DHL-4 xenograft. Nature of the series: SU-DHL-4 DLBCL tumor xenograft study in mice. The protocol:
as §3
5×10^6 MV-4-11 or 1×10^7 SU-DHL-4 cells were collected and re-suspended in 0.1 mL of serum-free media with Matrigel (1:1 v/v) per mouse for subcutaneous inoculation in isoflurane anesthetized male BALB/c nude or C.B-17 scid mice, respectively (treated in accordance with AAALAC animal welfare guidelines). When the average tumor volumes reached 100-200 mm^3, tumor volume outliers were removed and the remaining animals randomly divided into groups of 6-8 with similar average tumor volumes in each group. […] Animals were intravenously dosed at 25 mg/kg, 50 mg/kg or 100 mg/kg 1×/week for 3 or 4 weeks. The appearance and behavior of each mouse was observed and recorded daily. Body weights and tumor volumes were measured and recorded every 2-4 days and the results were expressed as group means±SEM. Pairwise statistical comparisons between groups were performed by one-way ANOVA, and p<0.05 was considered statistically significant.

Setting [1] is: 100 mg/kg intravenously 1×/week.
Setting [2] is: 100 mg/kg intravenously 1×/week, after 4 weeks of dosing.

With `Cc1sc2c(c1C)C(c1ccc(Cl)cc1)=N[C@@H](CC(=O)N1CCC(CN3CCN(Cc4ccc(-n5c(O)nnc5-c5cc(C(C)C)c(O)cc5O)cc4)CC3)CC1)c1nnc(C)n1-2.Cl` [Compound 74, (S)-2-(4-(4-chlorophenyl)-2,3,9-trimethyl-6H-thieno[3,2-f][1,2,4]triazolo[4,3-a][1,4]diazepin-6-yl)-1-(4-((4-(4-(3-(2,4-dihydroxy-5-isopropylphenyl)-5-hydroxy-4H-1,2,4-triazol-4-yl)benzyl)piperazin-1-yl)methyl)piperidin-1-yl)ethan-1-one hydrochloride], the pIC50 was 6.00 to 7.00 on BRD4 (BD1+BD2); 6.47 in the series with ERBB2; 6.39 in the series with EGFR; 6.12 in the series with RAF1; more than 7.00 in the series with MV4-11 cells. Also, the “animals tumor free at the end of the study” value in the series on MV4-11 xenograft (50 mg/kg intravenously 1×/week) is 1 out of 6; in the series on MV4-11 xenograft (setting [1]) it was 4 out of 6. Moreover, the tumor growth inhibition entry in the series on MV4-11 xenograft (50 mg/kg intravenously 1×/week), in the series with MV4-11 xenograft (setting [1]) and in the series on SU-DHL-4 xenograft (setting [2]) was “significant tumor growth inhibition” throughout. Moreover, the “animal deaths and body weights” value in the series with MV4-11 xenograft (any group) and with SU-DHL-4 xenograft (any dose level) was “No animal deaths or significant effects on body weights were observed” throughout. Further, the “tumor vs control (T/C) value” in the series on SU-DHL-4 xenograft (setting [2]) came out at 41%.
